Consider 13 molecules from PMC9115881, “Penicillin Derivatives Inhibit the SARS-CoV-2 Main Protease by Reaction with Its Nucleophilic Cysteine” (Journal of Medicinal Chemistry, 2022).

By IC50 is commonly meant the concentration that gives 50% inhibition.

For assay [1], the target named is T1, SARS-CoV-2 M^pro (Severe acute respiratory syndrome coronavirus 2, UniProt P0DTD1). The assay is described as follows: biochemical. Format: biochemical. Conditions: for IC50: 37mer substrate 2.0 μM, mean ± SD, n ≥ 2, read-out: IC50; for M^pro inhibition, result in words: SPE-MS inhibition assay.
Assay [2] has as its target T1, SARS-CoV-2 M^pro. In words: SPE-MS M^pro inhibition assay, 11mer peptide substrate. Format: biochemical.
The target in assay [3] is T1, SARS-CoV-2 M^pro. In words: Protein-observed M^pro assay (SPE-MS), covalent modification. Type of assay: binding. Conditions: M^pro 2.0 μM, inhibitor 11 or 33 μM, 45 min. Here is the method:
Selected compounds were tested for reaction with M^pro using protein-observed MS to inform on their mechanism of inhibition (Figure 2). Initially, M^pro was incubated with a ∼6-fold excess of the penicillin sulfone ester for 45 min and then analyzed by MS. […] When the inhibitor concentration was increased to ∼17-fold to account for the possibility of modifying all 12 M^pro cysteine or other residues, only low levels of a second covalent M^pro modification by the inhibitors were observed (Figure 2A–C). No evidence for fragmentation of the inhibitors once bound to M^pro was accrued.
Solutions of the inhibitors (100% DMSO) were dry-dispensed across 384-well polypropylene assay plates (Greiner) (for 11 or 33 μM top concentrations) using an ECHO 550 acoustic dispenser (Labcyte). DMSO was used as a negative control. Each reaction was performed in technical duplicates. The enzyme mixture (50 μL/well), containing M^pro (2.0 μM) in buffer (20 mM HEPES, pH 7.5), was dispensed across the penicillin-containing 384-well assay plates with a multidrop dispenser (Thermo Fischer Scientific). The reaction mixture was incubated for 45 min at 20 °C under an ambient atmosphere prior to analysis by SPE-MS.
MS analyses were performed using a RapidFire RF 365 high-throughput sampling robot (Agilent) attached to an iFunnel Agilent 6550 accurate mass Q-TOF mass spectrometer using a C4 cartridge and the same parameters as described above, with the exception of the gas temperature that was reduced to 225 °C. Protein spectra were deconvoluted for the m/z range 850–1350 Da, with a resolution of 2 Da and with a 10–60 kDa cutoff using the MaxEnt1 function in Agilent MassHunter Version 7. The deconvoluted files were extracted as csv files, sorted using Enthought Canopy GUI, and normalized and plotted using GraphPad Prism 9.

Assay [4] has as its target T2, active site (Cys145) TPCK-blocked M^pro (Severe acute respiratory syndrome coronavirus 2, UniProt P0DTD1).
T2 construct: employing SARS-CoV-2 M^pro (2.0 μM); made in house
The assay is described as follows: Protein-observed M^pro assay after preincubation with TPCK. Conditions: M^pro 2.0 μM preincubated with TPCK 10 μM for 180 min, then inhibitor 60 min. Format: binding, SARS-CoV-2.

Assay [5] concerns the target T1, SARS-CoV-2 M^pro. Conditions: earlier SPE-MS M^pro assay; cited from earlier work.
Assay [6] has as its target T1, SARS-CoV-2 M^pro. The assay is described as follows: Cocrystallization with M^pro, crystal structure. Conditions: 2.0 Å resolution, PDB 7Z59. The source says:
To investigate the mode of M^pro inhibition by penicillin derivatives, we carried out crystallographic studies and obtained a structure of M^pro complexed with a penicillin sulfone 20e-derived ligand following cocrystallization (C2 space group, 2.0 Å resolution; Supporting Information Figure S7). The structure was solved by molecular replacement using a reported M^pro structure (PDB ID: 6YB7([29])) as a search model. The overall fold of the structure is similar to those previously reported for M^pro (RMSD = 0.41 Å for M^pro complexed with PF-07321332 (8, nirmatrelvir; PDB ID: 7VH8);[68] Supporting Information Figure S7).
A frozen SARS-CoV-2 M^pro solution was thawed and diluted to 6 mg/mL (using 20 mM HEPES, pH 7.5, 50 mM NaCl). β-Lactam 20e was added to the protein solution to a final concentration of 10 mM; the mixture was incubated for 2 h at ambient temperature prior to dispensing the plates. The drop composition was: 0.15 μL protein–ligand solution, 0.3 μL 11%v/v PEG 4000, 0.1 M MES, pH 6.5, and 0.05 μL M^pro crystal seed stock. A M^pro crystal seed stock was prepared by crushing M^pro crystals with a pipette tip, suspending them in 30% PEG 4000, 5%v/v DMSO, 0.1 M MES pH 6.5, and vortexing for 60 s with approximately 10 glass beads (1.0 mm diameter, BioSpec products). The reservoir solution was: 11%v/v PEG 4K, 5%v/v DMSO, 0.1 M MES, pH 6.5. […]

Setting [7] is: Table 1, compounds 15, 16: 11mer peptide as substrate, M^pro […], substrate 2.0 μM, read-out: IC50.
[8] abbreviates: Table 3, compounds 25c, 25g: 11mer peptide as substrate, M^pro […], substrate 2.0 μM, read-out: IC50.

Entries after “also recorded” stand apart in the source; their conditions may differ.

On to `CC1(C)[C@H](C(=O)OCc2ccccc2)N2C(=O)[C@@H](NC(=O)COc3ccccc3)[C@H]2S1(=O)=O` [Compound 10, penicillin V sulfone benzyl ester], for which the IC50 was 6.6 ± 2.7 µM on SARS-CoV-2 M^pro [1] (Table 1, M^pro […], 15 min preincubation); 6.6 ± 2.7 µM on SARS-CoV-2 M^pro [1] (Table 3, M^pro […]); 8.7 ± 0.2 µM at SARS-CoV-2 M^pro [2] (Table S1, M^pro 0.15 μM, TSAVLQ/SGFRK-NH2 2.0 μM, technical duplicates n = 2, mean ± SD, read-out: IC50 [μM] (11mer peptide)). On SARS-CoV-2 M^pro [3], the “covalent modification of M^pro by protein-observed MS” value (shortened to “covalent modification of M^pro”) was “covalent reaction with Cys145; also recorded: covalent reaction with a single nucleophilic protein residue; also recorded: clear evidence for the covalent reaction”. The “covalent reaction with TPCK-pretreated M^pro by protein-observed MS” value in assay [4] is reported as “reaction is ablated by pretreatment of M^pro with the active site binding inhibitor TPCK; also recorded: do not efficiently react covalently”. Moreover, the “M^pro inhibition, reported result in words” value on SARS-CoV-2 M^pro [5] is “inhibits M^pro by reaction with the active site cysteine residue”.

For `CC1(C)[C@H](C(=O)OCc2ccccc2)N2C(=O)[C@@H](NC(=O)Cc3ccccc3)[C@H]2S1(=O)=O` [Compound 11, penicillin G sulfone benzyl ester], the “M^pro inhibition, result in words” value at SARS-CoV-2 M^pro [1] is listed as “did not inhibit M^pro”. Besides, the IC50 at SARS-CoV-2 M^pro [1] (Table 3, M^pro […]) was > 50 µM. At SARS-CoV-2 M^pro [5], the “M^pro inhibition, reported result in words” value is “inactive”.

For `CC1(C)[C@H](C(=O)OCc2ccccc2)N2C(=O)[C@H](NC(=O)COc3ccccc3)[C@H]2[S@@+]1[O-]` [Compound 15, (6S)-penicillin V (S)-sulfoxide benzyl ester], the 50% inhibitory concentration (IC50) on SARS-CoV-2 M^pro [2] (setting [7]) was > 50 µM.

As for `CC1(C)[C@H](C(=O)OCc2ccccc2)N2C(=O)[C@H](NC(=O)COc3ccccc3)[C@H]2S1(=O)=O` [Compound 16, (6S)-penicillin V sulfone benzyl ester], the IC50 on SARS-CoV-2 M^pro [2] (setting [7]) was > 50 µM.

As for `CC1(C)[C@H](C(=O)OCc2ccc(F)cc2F)N2C(=O)[C@@H](NC(=O)COc3ccccc3)[C@H]2S1(=O)=O` [Compound 20e], the “covalent modification seen in the crystal structure” value at SARS-CoV-2 M^pro [6] was “active site Cys145 S-acylation”.

For the molecule `C#CCOC(=O)[C@@H]1N2C(=O)[C@@H](NC(=O)COc3ccccc3)[C@H]2S(=O)(=O)C1(C)C` [Compound 20q], the 50% inhibitory concentration (IC50) at SARS-CoV-2 M^pro [1] (Table 2, M^pro […]) was 3 ± 0.4 µM. Moreover, at SARS-CoV-2 M^pro [3], the “covalent modification of M^pro” value is given as “covalent reaction with Cys145; also recorded: covalent reaction with a single nucleophilic protein residue; also recorded: clear evidence for the covalent reaction”. In addition, in assay [4], the “covalent reaction with TPCK-pretreated M^pro by protein-observed MS” value is on record as “reaction is ablated by pretreatment of M^pro with the active site binding inhibitor TPCK; also recorded: do not efficiently react covalently”.

`CC1(C)[C@H](C(=O)OCc2ccccc2)N2C(=O)[C@@H](NC(=O)OCc3ccccc3)[C@H]2S1(=O)=O` [Compound 25a]: the “M^pro inhibition, result in words” value at SARS-CoV-2 M^pro [1] is given as “abolished M^pro inhibition”. In addition, the IC50 at SARS-CoV-2 M^pro [1] (Table 3, M^pro […]) was > 50 µM. In addition, the “covalent modification of M^pro” value at SARS-CoV-2 M^pro [3] was “do not covalently react with Cys145; also recorded: does not modify M^pro covalently; also recorded: but not 25a”.

`CC1(C)[C@H](C(=O)OCc2ccccc2)N2C(=O)[C@@H](NC(=O)CCc3ccccc3)[C@H]2S1(=O)=O` [Compound 25b]: the IC50 at SARS-CoV-2 M^pro [1] (Table 3, M^pro […]) stood at 45.7 ± 0.9 µM. For the same molecule, the “covalent modification of M^pro” value at SARS-CoV-2 M^pro [3] is listed as “do not covalently react with Cys145”.

In the case of `Cc1onc(-c2c(Cl)cccc2Cl)c1C(=O)N[C@@H]1C(=O)N2[C@@H](C(=O)OCc3ccccc3)C(C)(C)S(=O)(=O)[C@H]12` [Compound 25c], the IC50 at SARS-CoV-2 M^pro [2] (setting [8]) is > 50 µM.

Take `CCN1CCC(NC(=O)N[C@@H](C(=O)N[C@@H]2C(=O)N3[C@@H](C(=O)OCc4ccccc4)C(C)(C)S(=O)(=O)[C@H]23)c2ccccc2)C(=O)C1=O` (stereo partly drawn) [Compound 25g]: the IC50 on SARS-CoV-2 M^pro [2] (setting [8]) is > 50 µM.

As for `CC1(C)[C@H](C(=O)OCc2ccccc2)N2C(=O)C(Br)(Br)[C@H]2S1(=O)=O` [Compound 28, 6,6-dibromopenicillanic acid sulfone benzyl ester], the IC50 at SARS-CoV-2 M^pro [1] (Table 4, M^pro 0.15 μM) is ~0.6 µM. In addition, on SARS-CoV-2 M^pro [3], the “covalent modification of M^pro” value is “initial covalent M^pro binding is followed by rapid subsequent reaction to give new species”.

With `CC1(C)[C@H](C(=O)OCc2ccc([N+](=O)[O-])cc2)N2C(=O)C(Br)(Br)[C@H]2[S+]1[O-]` (stereo partly drawn) [Compound 32, 6,6-dibromopenicillaic acid (R)-sulfoxide para-nitrobenzyl ester], the IC50 on SARS-CoV-2 M^pro [1] (Table 4, M^pro 0.15 μM) is ~0.6 µM. The “covalent modification of M^pro” value at SARS-CoV-2 M^pro [3] is “initial covalent M^pro binding is followed by rapid subsequent reaction to give new species”.

As for `CC1(C)[C@H](C(=O)O)N2C(=O)C[C@H]2S1(=O)=O` [Compound 33, sulbactam, reference compound], on SARS-CoV-2 M^pro [5], the “M^pro inhibition, reported result in words” value is recorded as “inability of sulbactam to inhibit M^pro”.
